Test results reported in paper PMC9412875, “^64Cu-DOTHA2-PSMA, a Novel PSMA PET Radiotracer for Prostate Cancer with a Long Imaging Time Window” (Pharmaceuticals, 2022).

Tests used:
[1] = Lipophilicity (log D), octanol/PBS partition; type: physicochemical; details: octanol / PBS pH 7.4, triplicate
Experimental: For log D measurements, 8 MBq of ^64Cu-DOTHA2-PSMA was added to a pre-saturated mixture of phosphate-buffered saline pH 7.4 (500 µL) and octanol (500 µL). Samples were shaken for 30 min at room temperature, centrifuged at 7000 rpm for 5 min, and 100 µL of each phase was counted using a Packard Cobra gamma counter. Experiments were performed in triplicate and the value was presented as log Dmean ± SD, where D was calculated as D = (Average of CPM in octanol / CPM in PBS).

[2] = Plasma stability (ex vivo) and protein binding in mouse serum/plasma; type: in vitro ADME; details: for 64Cu released from Proteins / 64Cu-DOTHA2-PSMA Released from Proteins: after 10% TFA; for proportion of free 64Cu: excess natCu-DOTHA2-PSMA
Experimental: Plasma stability studies were carried out by incubating ^64Cu-DOTHA2-PSMA (50 MBq in 250 μL PBS buffer) in 250 μL of mouse serum at 37 °C for up to 24 h. The plasma was then mixed twice with ethanol (1:1) to precipitate all the proteins. The samples were subjected to vortex mixing for 1 min and then centrifugation for 10 min at 7000 rpm. Plasma proteins were separated from the soluble component by ultracentrifugation and the radioactivity was assessed. The supernatant fraction was assayed by radio-TLC on C18 plates and by UPLC; free ^64Cu(OAc)2 and ^64Cu-DOTHA2-PSMA were used as standards. The radio-TLCs were eluted with 0.1 M sodium citrate buffer at pH 5.5 using an Instant Imager system (BioScan, DC, U.S.A.) for radiodetection. The precipitated proteins were again subjected to 10% TFA, vortexed for 2–3 min, and then centrifuged for 10 min at 7000 rpm. The separation and analysis for the supernatant and the proteins were performed in the same manner.
The protein binding ability was evaluated by incubating ^64Cu-DOTHA2-PSMA (100 MBq) in phosphate buffer (250 μL, pH 7) at 37 °C and fresh mouse serum (250 μL) and for 1 h, 4 h, and 24 h. Plasma proteins were precipitated by the addition of ethanol (1:1, v/v) to the plasma samples, followed by centrifugation at 7000 rpm for 5 min at room temperature and separation of the supernatant. This process was repeated three times with the same volume of ethanol, and the supernatants were pooled. The radioactivity content of the supernatant and the precipitated protein were measured in a dose calibrator to obtain the protein binding percentage.

LNCaP tumor = assay: Tumor-bearing mice biodistribution after PET; type: in vivo, NRG mice; details: 24 h p.i.
Experimental: Balb/c mice (n = 30) were injected with a bolus of ^64Cu-DOTHA2-PSMA by the tail vein (in 0.3 mL of saline: 3 MBq for 1 h, 2 h, and 4 h p.i., 7.5 MBq for 24 h p.i. and 21 MBq for 48 h p.i.). Injected activity had to be increased for later time points to ensure reliable detection and reliability in organs with a low uptake, e.g., the brain. At all timepoints, blood was collected using a heparin-coated syringe by femoral vein puncture and mice were then euthanized and dissected. Harvested tissues were rinsed, blotted dry, and then weighted and counted in gamma counter. The results are reported as the %IA per gram of tissue. The biodistribution results were compared with the ^68Ga-PSMA-617 results obtained by our team at 1 h and 2 h p.i.
PET imaging of NRG mice and supplemental tumor-bearing mice were biodistributed 24 h p.i. as described for balb/c mice.

[3] = ex vivo, mouse plasma, 100 equiv. natCu-DOTHA2-PSMA, 1 h
[4] = ex vivo, mouse plasma, 100 equiv. natCu-DOTHA2-PSMA, 4 h
[5] = ex vivo, mouse plasma, 100 equiv. natCu-DOTHA2-PSMA, 24 h
[6] = Blocked (n=4), co-injection of natCu-DOTHA2-PSMA

## CN([O-])C(=O)CN1CCN(CC(=O)NCC2CCC(C(=O)NC(Cc3ccc4ccccc4c3)C(=O)NCCCCC(NC(=O)NC(CCC(=O)O)C(=O)O)C(=O)O)CC2)CCN(CC(=O)N(C)[O-])CCN(CC(=O)N(C)O)CC1.[64Cu+2] (stereo not drawn) [^64Cu-DOTHA2-PSMA]
[1]
  log D: -0.96 ± 0.61
[2]; 37 °C, up to 24 h
  demetallation or degradation in mouse serum (radio-UPLC, radio-TLC): No major demetallation or degradation
[2]; ex vivo, 4 h
  change of signal bound to plasma proteins on adding excess natCu-DOTHA2-PSMA: 1%
[2]; ex vivo, 24 h
  change of signal bound to plasma proteins on adding excess natCu-DOTHA2-PSMA: 6%
[2]; ex vivo, mouse plasma 37 °C, 1 h, % of total signal
  64Cu in the Supernatant: 0%
[2]; ex vivo, mouse plasma 37 °C, 4 h, % of total signal
  64Cu in the Supernatant: 1.98%
[2]; ex vivo, mouse plasma 37 °C, 24 h, % of total signal
  64Cu in the Supernatant: 1.28%
[2]; [3]
  64Cu and 64Cu-DOTHA2-PSMA Bound to Plasma Proteins: 24%
  64Cu in the Supernatant: 0%
  64Cu released from Proteins: 0.82%
[2]; [4]
  64Cu and 64Cu-DOTHA2-PSMA Bound to Plasma Proteins: 33%
  64Cu in the Supernatant: 3.35%
  64Cu released from Proteins: 0.84%
[2]; [5]
  64Cu and 64Cu-DOTHA2-PSMA Bound to Plasma Proteins: 30%
  64Cu in the Supernatant: 5.60%
  64Cu released from Proteins: 2.14%
[2]; ex vivo, mouse plasma, 1 h
  64Cu and 64Cu-DOTHA2-PSMA Bound to Plasma Proteins: 24%
  signal attributed to free 64Cu overall (supernatant and precipitate): 0.79%
  64Cu-DOTHA2-PSMA Released from Proteins: 15%
  proportion of free 64Cu: 0.82%
[2]; ex vivo, mouse plasma, 1 h, % of total signal
  64Cu released from Proteins: 0.79%
[2]; ex vivo, mouse plasma, 4 h
  64Cu and 64Cu-DOTHA2-PSMA Bound to Plasma Proteins: 34%
  signal attributed to free 64Cu overall (supernatant and precipitate): 2.62%
  64Cu-DOTHA2-PSMA Released from Proteins: 21%
  proportion of free 64Cu: 4.19%
[2]; ex vivo, mouse plasma, 4 h, % of total signal
  64Cu released from Proteins: 0.64%
[2]; ex vivo, mouse plasma, 24 h
  64Cu and 64Cu-DOTHA2-PSMA Bound to Plasma Proteins: 36%
  free 64Cu, share of the plasma supernatant signal (UPLC): less than 3%
  64Cu-DOTHA2-PSMA Released from Proteins: 21%
  proportion of free 64Cu: 7.75%
[2]; ex vivo, mouse plasma, 24 h, % of total signal
  64Cu released from Proteins: 0.65%
LNCaP tumor; [6]
  Adrenals uptake: 9.02 %IA/g
  Blood uptake: 1.91 %IA/g
  Bone uptake: 0.91 %IA/g
  Brain uptake: 0.38 %IA/g
  Fat uptake: 0.26 %IA/g
  Heart uptake: 3.00 %IA/g
  Intestin uptake: 8.53 %IA/g
  Kidneys uptake: 6.86 %IA/g
  LNCaP tumor uptake: 7.44 %IA/g
  Lungs uptake: 5.99 %IA/g
  Muscles uptake: 0.47 %IA/g
  Pancreas uptake: 2.09 %IA/g
  Plasma uptake: 2.54 %IA/g
  Salivary gl. uptake: 1.84 %IA/g
  Seminal gl. uptake: 0.59 %IA/g
  Skin uptake: 0.50 %IA/g
  Spleen uptake: 6.99 %IA/g
  Stomach uptake: 5.55 %IA/g
  Tail uptake: 1.36 %IA/g
  Testis uptake: 1.03 %IA/g
  Thyroid uptake: 1.33 %IA/g
  liver uptake: 15.15 %IA/g
LNCaP tumor; Non-blocked (n=11)
  Adrenals uptake: 4.70 %IA/g
  Blood uptake: 3.46 %IA/g
  Bone uptake: 2.38 %IA/g
  Brain uptake: 0.75 %IA/g
  Fat uptake: 0.63 %IA/g
  Heart uptake: 5.20 %IA/g
  Intestin uptake: 15.69 %IA/g
  Kidneys uptake: 13.24 %IA/g
  LNCaP tumor uptake: 17.33 %IA/g
  Lungs uptake: 14.30 %IA/g
  Muscles uptake: 1.10 %IA/g
  Pancreas uptake: 2.80 %IA/g
  Plasma uptake: 4.52 %IA/g
  Salivary gl. uptake: 4.18 %IA/g
  Seminal gl. uptake: 1.13 %IA/g
  Skin uptake: 1.07 %IA/g
  Spleen uptake: 10.10 %IA/g
  Stomach uptake: 9.17 %IA/g
  Tail uptake: 2.37 %IA/g
  Testis uptake: 1.96 %IA/g
  Thyroid uptake: 2.57 %IA/g
  liver uptake: 28.54 %IA/g
